“Also recorded” adds a separate entry of the source.

In general, Kd refers to the constant that tells how readily two partners part at equilibrium.

A short description of data set [1]: Chemical and optical properties of NIR dyes (Table 1). Format: physicochemical.
The target in data set [2] is T1, folate receptor (FR-α) on KB cells (Homo sapiens, UniProt P15328).
T1 construct: KB cells that overexpress FR-α were seeded in 24-well (100,000 cells/well) Falcon plates; host or cells: KB cells (human; described as a HeLa derivative)
T1 sequence (P15328 25-234): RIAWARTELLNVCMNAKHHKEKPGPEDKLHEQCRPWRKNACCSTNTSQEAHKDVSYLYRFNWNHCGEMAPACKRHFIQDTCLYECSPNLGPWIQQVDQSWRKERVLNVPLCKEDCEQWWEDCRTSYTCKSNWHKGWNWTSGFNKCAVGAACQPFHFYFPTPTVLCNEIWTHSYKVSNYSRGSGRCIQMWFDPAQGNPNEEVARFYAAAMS
Nature of the data set: Competition binding with [3H]-folic acid on KB cells. Particulars: for Kd: 10 nM [3H]-folic acid, 1 h at 37 °C, read-out: dissociation constants (KD); for Kd / affinity and specificity for folate receptor (words): KB cells; for Relative binding affinities: relative affinity of folic acid=1, <1 weaker. The protocol:
KB cells that overexpress FR-α were seeded in 24-well (100,000 cells/well) Falcon plates and allowed to form monolayers over a period of 24 h. […] After incubating for 1 hour at 37° C., cells were rinsed with PBS (2×0.5 mL) and 1M trichloroacetic acid (1×0.5 mL) to remove any unbound radioactive materials. After adding 1% sodium dodecylsulfate in PBS (0.5 mL), cells were transferred into individual scintillation vials containing Ecolume scintillation cocktail (3.0 mL) and counted in a liquid scintillation analyzer. The relative binding affinities were calculated using a plot of cell bound radioactivity versus the concentration of the test article using Graph Pad Prism 4.
(§1) KB cells that overexpress FR-α were seeded in 24-well (100,000 cells/well) Falcon plates (BD Biosciences, CA) and allowed to form monolayers over a period of 12 h. […] After incubating for 1 h at 37° C., cells were rinsed with PBS (3×0.5 mL, Gibco, NY) to remove any unbound radioactive materials. After adding 0.25 M sodium hydroxide (0.5 mL) and incubating for 12 h at 4° C., cells were transferred into individual scintillation vials containing Ecolite scintillation cocktail (3.0 mL, MP Biomedicals, OH) and counted in a liquid scintillation analyzer (Packard). The relative binding affinities were calculated using a plot of % cell bound radioactivity versus the log concentration of the test article using GraphPad Prism 4.
as §1, with “12 hours.” for “12 h.”, “1 hour” for “1 h”, “12 hours” for “12 h”

For data set [3], the system named is folate receptor positive KB tumor xenografts. Nature of the data set: Whole body imaging and tissue biodistribution, KB tumor xenografts. Format: in vivo, mice. The note with it: for tumor fluorescence intensity, direct comparison / whole body imaging: accumulation: 10 nmol i.v.; for tumor fluorescence intensity, direct comparison / whole body imaging: accumulation / tumor fluorescence: 2 h; for tumor fluorescence: 10 nmol. The protocol:
(§2) Seven-week-old female nu/nu mice were inoculated subcutaneously with KB cells (1.0×10^6/mouse in folate free RPM11640 medium) on the shoulder. […] […] Whole body imaging (intact tumor) experiments were then performed using a Caliper IVIS Lumina II Imaging Station with Living Image 4.0 software (PerkinElmer Inc, MA). Settings for imaging:—lamp level: medium; excitation: 745 nm; emission: 830 nm; epi illumination; binning: 4 (M), FOV=12.5; f-stop=2; acquisition time=1 s.
Following whole body imaging, animals were dissected and selected tissues (heart, lung, liver, spleen, kidneys, stomach, small intestine, large intestine, muscle, skin, tumor) were analyzed for fluorescence activity using IVIS imager as before. Settings for imaging: lamp level: medium; excitation: 745 nm; emission: 830 nm; epi illumination; binning: 4 (M), FOV=12.5; f-stop=2; acquisition time=1 s.
as §2, with “shoulder. Growth of the tumors was measured in perpendicular directions every 2 days using a caliper (body weights were monitored on the same schedule), and the volumes of the tumors were calculated as 0.5×L×W^2 (L=longest axis and W=axis perpendicular to L in millimeters).” for “shoulder.”, “ICG (830 nm);” for “830 nm;”
Following whole body imaging, animals were dissected and selected tissues (heart, lung, liver, spleen, kidneys, stomach, small intestine, large intestine, muscle, skin, and tumor) were analyzed for fluorescence activity using IVIS imager as before. Settings for imaging:—lamp level: medium; excitation: 745 nm; emission:ICG (830 nm); epi illumination; binning: 4 (M), FOV=12.5; f-stop=2; acquisition time=1 s.
Five-week-old female nu/nu mice were inoculated subcutaneously with KB cells (1.0×10^6/mouse in RPMI medium) on their shoulders. Growth of the tumors was measured in two perpendicular directions every 2 days using a caliper (body weights were monitored on the same schedule), and the volumes of the tumors were calculated as 0.5×L×W^2 (L) longest axis and W) axis perpendicular to L in millimeters). Once tumors reached between 400 and 500 mm3 in volume, animals were treated with folate receptor-targeted NIR dye conjugate (10 nmol) in phosphate buffered saline (100 μL). […]
Animal imaging experiments were performed using a Caliper Ivis Lumina II Imaging Station with Living Image 4.0 software. Settings for imaging Alexa Fluor 647 and DyLight 680 conjugates: lamp level: high; excitation: 605; emission: Cy5.5; epi illumination; binning: (M) 4; FOV=7.5; f-stop=4; acquisition time=1 s. Settings for imaging DyLight 750 and IR800CW conjugates: lamp level: high; excitation: 745; emission: ICG; epi illumination; binning: (M) 4, FOV=12.5; f-stop=4; acquisition time=1 s.
Seven-week-old female nu/nu mice were inoculated subcutaneously with KB cells (1.0×10^6/mouse in folate free RPM11640 medium) on the shoulder. Growth of the tumors was measured in perpendicular directions every 2 days using a caliper (body weights were monitored on the same schedule), and the volumes of the tumors were calculated as 0.5×L×W^2 (L=longest axis and W=axis perpendicular to L in millimeters). Once tumors reached between 400 and 500 mm3 in volume, animals (5 mice/group) were intravenously injected with 10 nmol of OTL-0038 or OTL-0039 in phosphate buffered saline (100 μL). After 2.5 hours, animals were euthanized by CO2 asphyxiation. Whole body imaging (intact tumor) experiments were then performed using a Caliper IVIS Lumina II Imaging Station with Living Image 4.0 software (PerkinElmer Inc, MA). […]

For the molecule `CC1(C)C(/C=C/C=C/C=C/C=C2\N(CCCCS(=O)(=O)O)c3ccc4ccccc4c3C2(C)C)=[N+](CCCCS(=O)(=O)[O-])c2ccc3ccccc3c21` [ICG, indocyanine green], in data set [1], the “E” value worked out at 121000 M⁻¹ cm⁻¹, the “Q (%)” value stood at 9.3%, the “Stokes Shift (nm)” value was 15 nm and the “λem (nm)” value was 807 nm. For the same molecule, the “λex (nm)” value in data set [1] was 822 nm.

As to `CC1(C)C(/C=C/C2=C(Oc3ccc(S(=O)(=O)O)cc3)C(=C/C=C3/N(CCCCS(=O)(=O)O)c4ccc(S(=O)(=O)[O-])cc4C3(C)C)/CCC2)=[N+](CCCCCC(=O)O)c2ccc(S(=O)(=O)O)cc21` [IR800CW], in data set [1], the “E” value is 237000 M⁻¹ cm⁻¹, the “Q (%)” value is listed as 14.2%, the “Stokes Shift (nm)” value is reported as 14 nm and the “λem (nm)” value was 786 nm. Moreover, in data set [1], the “λex (nm)” value is listed as 800 nm.

As to `CC1(C)C(=CC=C2CCCC(C=CC3=[N+](CCC[N+](C)(C)C)c4ccc(S(=O)(=O)O)cc4C3(C)C)=C2Oc2ccc(CCC(=O)O)cc2)N(CCC[N+](C)(C)C)c2ccc(S(=O)(=O)O)cc21` [ZW80o], in data set [1], the “E” value is 249000 M⁻¹ cm⁻¹, the “Q (%)” value worked out at 15.1%, the “Stokes Shift (nm)” value was determined as 16 nm and the “λem (nm)” value is 772 nm. Also, in data set [1], the “λex (nm)” value was found to be 788 nm.

Turning to FA-EDA-IR800 [OTL-0002], in data set [2], the dissociation constant (Kd) stood at 19.3 nM and the Relative binding affinities turned out to be 0.430. Further, in data set [3], the “tumor fluorescence intensity, direct comparison” value (“tumor fluorescence intensity” below) is reported as “brighter (higher fluorescence intensity); also recorded: highest tumor-accumulated fluorescence” and the “whole body imaging: accumulation” value is “accumulated predominantly in the folate receptor positive tumors”.

As to FA-EDA-Kodak2 [OTL-0004], in data set [2], the Kd stood at 30.6 nM and the Relative binding affinities is 0.271. In data set [3], the “tumor fluorescence intensity” value is “very low specificity for the tumor and low fluorescence”; the “whole body imaging: accumulation” value was “did not accumulated in the tumors”.

FA-EDA-LS288 [OTL-0001]: in data set [2], the Kd came to 30.7 nM and the Relative binding affinities was 0.270. Moreover, the “whole body imaging: accumulation” value in data set [3] was “accumulated predominantly in the folate receptor positive tumors”.

For the molecule FA-EDA-ZW800 [OTL-0003], in data set [2], the Kd amounted to 23.3 nM and the Relative binding affinities is 0.356. In data set [3], the “tumor fluorescence intensity” value is given as “highest tumor-accumulated fluorescence” and the “whole body imaging: accumulation” value is given as “accumulated predominantly in the folate receptor positive tumors”.

Consider Pte-N(Me)-Tyr-S0456 [OTL-0044], for which, in data set [2], the “affinity and specificity for folate receptor (words)” value was “All the compounds have an affinity for folate receptor except OTL-0044 and OTL-0045”. In data set [3], the “whole body imaging: accumulation” value is “accumulated predominantly in the folate receptor-positive tumors; also recorded: mainly accumulated in the tumors”.

With Pte-NHNH-Tyr-(OAc)-S0456 [OTL-0045], the “affinity and specificity for folate receptor (words)” value in data set [2] is “All the compounds have an affinity for folate receptor except OTL-0044 and OTL-0045”.

Pte-Tyr-2H(Deuterated)-S0456 [OTL-0042]: in data set [2], the Kd came to 61.7 nM and the Relative binding affinities worked out at 0.130.

On to Pte-Tyr-13C-S0456 [OTL-0040], for which, in data set [2], the Kd was 27.6 nM and the Relative binding affinities is recorded as 0.290.

In the case of Pte-Tyr-(OBn)-S0456 [OTL-0043], in data set [2], the Kd was 14.8 nM and the Relative binding affinities worked out at 0.177.

As for Pte-Tyramine-S0456 [OTL-0049], in data set [2], the Kd is 30.2 nM and the Relative binding affinities came to 0.265.

Take Pte-homo-Tyr-S0456 [OTL-0046]: in data set [2], the Kd turned out to be 13.8 nM and the Relative binding affinities was determined as 0.580. Further, the “whole body imaging: accumulation” value in data set [3] is “accumulated predominantly in the folate receptor-positive tumors; also recorded: mainly accumulated in the tumors”.

As for Pte-p-homo-Tyr-S0456 [OTL-0047], in data set [2], the Kd worked out at 12.8 nM and the Relative binding affinities is 0.625. For the same molecule, the “whole body imaging: accumulation” value in data set [3] was “accumulated predominantly in the folate receptor-positive tumors; also recorded: mainly accumulated in the tumors”.

For the molecule Pteroyl DAP-S0456 [OTL-0056], in data set [2], the dissociation constant Kd stood at 95.2 nM and the Relative binding affinities worked out at 0.078.

Take Pteroyl-Cys-S0456 [OTL-0054]: the “whole body imaging: accumulation” value in data set [3] is listed as “accumulated predominantly in the folate receptor-positive tumors”.

In the case of Pteroyl-Lys-S0456 [OTL-0053], the tumor fluorescence result is “bright tumor fluorescence” in data set [3] (excited at 605-675 nm, emitted at ICG (830 nm)) and “only a moderate brightness” in data set [3] (excited at 710-745 nm, emitted at ICG). Also, in data set [3] (in vivo imaging), the “Stoke's shift” value is “longer Stoke's shift”.
